According to patent publication US20240270751A1, “Pyrazolopyridinone Compounds” (BeiGene Ltd., priority 2021, published 2024):

How the values were obtained:
DGKζ = DGKζ (Homo sapiens (Human), UniProt Q13574); assay: Biochemical DGK IC50 assay, DGKζ ADP-Glo assay; details: 0.5 nM enzyme, 140 μM ATP, 80 μM DAG; read-out: DGKζ ADP-Glo assay IC50
How it was run: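 Full-length human DGKζ, His-TEV tagged and purified from baculovirus-infected Sf9 cells, assayed by ADP-Glo with DAG/PS lipid micelle substrate prepared in 25 mM HEPES pH 7.0 with octyl glucoside. Final compound concentrations spanned 1.55–10000 nM or 23.3–150000 nM.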

DGKα = DGKα (Homo sapiens (Human), UniProt P23743); assay: Biochemical DGK IC50 assay, DGKα ADP-Glo assay; details: 7.5 nM enzyme, 140 μM ATP, 80 μM DAG
How it was run: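 ADP-Glo read-out with full-length DGKα on DAG/PS lipid micelle substrate in 25 mM HEPES pH 7.0, 0.5 mM EDTA, 160 mM octyl β-D-glucopyranoside. Compound final concentrations spanned 1.55˜10000 nM or 23.3˜150000 nM.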

Chain of DGKα (P23743 whole entry): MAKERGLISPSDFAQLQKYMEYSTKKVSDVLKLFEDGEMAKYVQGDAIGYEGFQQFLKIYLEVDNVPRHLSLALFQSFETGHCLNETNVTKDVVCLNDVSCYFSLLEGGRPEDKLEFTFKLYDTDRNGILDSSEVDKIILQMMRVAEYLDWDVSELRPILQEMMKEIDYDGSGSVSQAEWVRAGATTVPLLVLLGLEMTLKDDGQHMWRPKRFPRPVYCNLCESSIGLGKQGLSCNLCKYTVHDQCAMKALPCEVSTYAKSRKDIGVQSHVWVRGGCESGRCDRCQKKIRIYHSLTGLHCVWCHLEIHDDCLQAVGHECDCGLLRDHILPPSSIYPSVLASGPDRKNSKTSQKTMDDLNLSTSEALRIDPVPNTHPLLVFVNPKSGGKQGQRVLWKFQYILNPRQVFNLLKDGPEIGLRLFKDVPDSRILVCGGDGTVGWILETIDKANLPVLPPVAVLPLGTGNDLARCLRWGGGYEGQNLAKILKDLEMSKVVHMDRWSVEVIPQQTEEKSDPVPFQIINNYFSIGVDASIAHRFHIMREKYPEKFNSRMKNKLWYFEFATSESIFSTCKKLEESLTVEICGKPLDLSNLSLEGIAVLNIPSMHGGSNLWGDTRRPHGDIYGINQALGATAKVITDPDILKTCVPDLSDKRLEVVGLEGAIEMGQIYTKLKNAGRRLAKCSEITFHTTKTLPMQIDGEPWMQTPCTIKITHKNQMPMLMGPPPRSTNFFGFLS
Chain of DGKζ (Q13574 other isoform, or with tags, fused parts or gaps): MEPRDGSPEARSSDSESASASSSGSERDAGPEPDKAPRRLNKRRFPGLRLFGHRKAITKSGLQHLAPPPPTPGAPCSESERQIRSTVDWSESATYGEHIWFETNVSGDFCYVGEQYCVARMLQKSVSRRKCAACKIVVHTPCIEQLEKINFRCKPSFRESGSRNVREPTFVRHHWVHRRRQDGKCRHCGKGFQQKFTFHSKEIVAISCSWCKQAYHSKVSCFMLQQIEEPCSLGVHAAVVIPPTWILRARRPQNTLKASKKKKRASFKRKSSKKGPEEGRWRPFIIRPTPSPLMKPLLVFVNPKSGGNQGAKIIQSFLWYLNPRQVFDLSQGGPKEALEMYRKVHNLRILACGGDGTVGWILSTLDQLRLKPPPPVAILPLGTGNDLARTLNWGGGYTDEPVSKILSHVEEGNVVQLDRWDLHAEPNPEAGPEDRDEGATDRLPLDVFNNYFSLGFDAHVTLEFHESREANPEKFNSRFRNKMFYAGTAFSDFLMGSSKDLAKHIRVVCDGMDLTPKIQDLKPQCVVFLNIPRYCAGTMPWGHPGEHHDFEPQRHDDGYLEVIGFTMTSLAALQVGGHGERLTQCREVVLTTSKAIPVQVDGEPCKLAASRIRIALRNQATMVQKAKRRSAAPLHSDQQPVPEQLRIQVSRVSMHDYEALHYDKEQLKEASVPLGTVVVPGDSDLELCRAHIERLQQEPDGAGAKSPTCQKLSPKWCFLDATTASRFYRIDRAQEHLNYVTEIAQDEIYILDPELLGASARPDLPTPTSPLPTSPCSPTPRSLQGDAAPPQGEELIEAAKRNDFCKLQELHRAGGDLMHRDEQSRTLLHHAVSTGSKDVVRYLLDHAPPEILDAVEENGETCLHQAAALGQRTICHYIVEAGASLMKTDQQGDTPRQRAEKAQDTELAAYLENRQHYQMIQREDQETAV

Structure (SMILES)	IC50 (DGKζ) [nM]	IC50 (DGKα) [nM]
CC[C@H]1CN(C(C)c2ccc(C)nc2)[C@H](CC)CN1c1cc(=O)n(C)c2cn(CC#N)nc12 (single isomer, unassigned) [Compound A349b]	4240	1580
CC[C@H]1CN(C(C)c2ccc(C(F)F)nc2)[C@H](CC)CN1c1cc(=O)n(C)c2cn(CC#N)nc12 (single isomer, unassigned) [Compound A351a]	167	274
CC[C@H]1CN(C(C)c2ccc(F)nc2)[C@H](CC)CN1c1cc(=O)n(C)c2cn(CC#N)nc12 (single isomer, unassigned) [Compound A353a]	190	32
CC[C@H]1CN(C(C)c2ccc(F)nc2)[C@H](CC)CN1c1cc(=O)n(C)c2cn(CC#N)nc12 (single isomer, unassigned) [Compound A353b]	2490	797
CC[C@H]1CN(C(C)c2ncc(C(F)(F)F)cc2F)[C@H](CC)CN1c1cc(=O)n(C)c2cn(CC#N)nc12 (single isomer, unassigned) [Compound A354a]	3130	996
CC[C@H]1CN(C(C)c2ncc(C(F)(F)F)cc2F)[C@H](CC)CN1c1cc(=O)n(C)c2cn(CC#N)nc12 (single isomer, unassigned) [Compound A354b]	260	130
CC[C@H]1CN(C(C)c2cnc(C)c(C)n2)[C@H](CC)CN1c1cc(=O)n(C)c2cn(CC#N)nc12 (single isomer, unassigned) [Compound A355a]	6420	10900
CC[C@H]1CN(C(C)c2cnc(C)c(C)n2)[C@H](CC)CN1c1cc(=O)n(C)c2cn(CC#N)nc12 (single isomer, unassigned) [Compound A355b]	176	2150
CC[C@H]1CN(C(C)c2cnc3c(n2)CCCC3)[C@H](CC)CN1c1cc(=O)n(C)c2cn(CC#N)nc12 (single isomer, unassigned) [Compound A357a]	2540	2450
CC[C@H]1CN(C(C)c2cnc3c(n2)CCCC3)[C@H](CC)CN1c1cc(=O)n(C)c2cn(CC#N)nc12 (single isomer, unassigned) [Compound A357b]	12	646
CC[C@H]1CN(C(C)c2ccc(Cl)cn2)[C@H](CC)CN1c1cc(=O)n(C)c2cn(CC#N)nc12 (single isomer, unassigned) [Compound A360a]	3800	142
CC[C@H]1CN(C(C)c2ccc(Cl)cn2)[C@H](CC)CN1c1cc(=O)n(C)c2cn(CC#N)nc12 (single isomer, unassigned) [Compound A360b]	134	2.7
CC[C@H]1CN(C(C)c2ncc(OC(F)(F)F)cc2F)[C@H](CC)CN1c1cc(=O)n(C)c2cn(CC#N)nc12 (single isomer, unassigned) [Compound A362a]	2510	922
CC[C@H]1CN(C(C)c2ncc(OC(F)(F)F)cc2F)[C@H](CC)CN1c1cc(=O)n(C)c2cn(CC#N)nc12 (single isomer, unassigned) [Compound A362b]	300	33
CC[C@H]1CN(C(C)c2cc3cnccc3cn2)[C@H](CC)CN1c1cc(=O)n(C)c2cn(CC#N)nc12 (single isomer, unassigned) [Compound A368a]	6650	4900
CC[C@H]1CN(C(C)c2cc3cnccc3cn2)[C@H](CC)CN1c1cc(=O)n(C)c2cn(CC#N)nc12 (single isomer, unassigned) [Compound A368b]	382	91
CC[C@H]1CN(C(C)c2ccc(CN3CCC(F)(F)CC3)nc2)[C@H](CC)CN1c1cc(=O)n(C)c2cn(CC#N)nc12 (single isomer, unassigned) [Compound A381a]	290	459
CC[C@H]1CN(C(C)c2ccc(CN3CCC(F)(F)CC3)nc2)[C@H](CC)CN1c1cc(=O)n(C)c2cn(CC#N)nc12 (single isomer, unassigned) [Compound A381b]	2330	2090
CC[C@H]1CN(C(C)c2ccc(CN3CCOCC3)cc2)[C@H](CC)CN1c1cc(=O)n(C)c2cn(CC#N)nc12 (single isomer, unassigned) [Compound A383a]	158	245
CC#CCn1cc2c(n1)c(N1C[C@@H](CC)N(C(C)c3ccc4c(c3)OC(F)(F)O4)C[C@@H]1C)cc(=O)n2C (single isomer, unassigned) [Compound A392a]	1480	1320
CC#CCn1cc2c(n1)c(N1C[C@@H](CC)N(C(C)c3ccc4c(c3)OC(F)(F)O4)C[C@@H]1C)cc(=O)n2C (single isomer, unassigned) [Compound A392b]	> 10000	1070

Structure (SMILES)	IC50 (DGKζ) [nM]	IC50 (DGKα) [nM]
CC#CCn1cc2c(n1)c(N1C[C@@H](CC)N(C(C)c3cnc4ccccc4n3)C[C@@H]1C)cc(=O)n2C (single isomer, unassigned) [Compound A394a]	5400	454
CC#CCn1cc2c(n1)c(N1C[C@@H](CC)N(C(C)c3cnc4ccccc4n3)C[C@@H]1C)cc(=O)n2C (single isomer, unassigned) [Compound A394b]	125	30
CC(c1ccc2nccnc2c1)N1C[C@H](C)N(c2cc(=O)n(C)c3c[nH]nc23)C[C@H]1C (stereo partly drawn) [Compound A1, 7-((2S,5R)-2,5-dimethyl-4-(1-(quinoxalin-6-yl)ethyl)piperazin-1-yl)-4-methyl-2,4-dihydro-5H-pyrazolo[4,3-b]pyridin-5-one]	> 150000	1800
C[C@@H]1CN(c2cc(=O)n(C)c3cn(CC#N)nc23)[C@@H](C)CN1[C@@H](C)c1ccc2nccnc2c1 [Compound A2a, 2-(7-((2S,5R)-2,5-dimethyl-4-((S)-1-(quinoxalin-6-yl)ethyl)piperazin-1-yl)-4-methyl-5-oxo-4,5-dihydro-2H-pyrazolo[4,3-b]pyridin-2-yl)acetonitrile]	52	4800
C[C@@H]1CN(c2cc(=O)n(C)c3cn(CC#N)nc23)[C@@H](C)CN1[C@H](C)c1ccc2nccnc2c1 [Compound A2b, 2-(7-((2S,5R)-2,5-dimethyl-4-((R)-1-(quinoxalin-6-yl)ethyl)piperazin-1-yl)-4-methyl-5-oxo-4,5-dihydro-2H-pyrazolo[4,3-b]pyridin-2-yl)acetonitrile]	13000	19000
CC(c1ccc2nccnc2c1)N1C[C@H](C)N(c2cc(=O)n(C)c3cn(C)nc23)C[C@H]1C (stereo partly shown) [Compound A3]	3800	3200
COCCn1cc2c(n1)c(N1C[C@@H](C)N(C(C)c3ccc4nccnc4c3)C[C@@H]1C)cc(=O)n2C (stereo partly shown) [Compound A5]	3500	21000
CC(c1ccc2nccnc2c1)N1C[C@H](C)N(c2cc(=O)n(C)c3cn(CC(N)=O)nc23)C[C@H]1C (stereo partly shown) [Compound A6]	> 150000	> 150000
COC(=O)Cn1cc2c(n1)c(N1C[C@@H](C)N(C(C)c3ccc4nccnc4c3)C[C@@H]1C)cc(=O)n2C (stereo partly shown) [Compound A7]	1030	> 10000
CC(c1ccc2nccnc2c1)N1C[C@H](C)N(c2cc(=O)n(C)c3cn(C(C)C#N)nc23)C[C@H]1C (stereo partly shown) [Compound A8]	570	31000
CC(c1ccc2nccnc2c1)N1C[C@H](C)N(c2cc(=O)n(C)c3cn(CCO)nc23)C[C@H]1C (stereo partly shown) [Compound A9]	30000	27000
CC(c1ccc2nccnc2c1)N1C[C@H](C)N(c2cc(=O)n(C)c3cn(CC4CC4)nc23)C[C@H]1C (stereo partly shown) [Compound A10]	18000	110000
CC(c1ccc2nccnc2c1)N1C[C@H](C)N(c2cc(=O)n(C)c3cn(CCN(C)C)nc23)C[C@H]1C (stereo partly shown) [Compound A11]	> 150000	> 150000
CC(c1ccc2nccnc2c1)N1C[C@H](C)N(c2cc(=O)n(C)c3cn(CC4CO4)nc23)C[C@H]1C (stereo partly shown) [Compound A12]	2200	> 150000
CC(c1ccc2nccnc2c1)N1C[C@H](C)N(c2cc(=O)n(C)c3cn(S(C)(=O)=O)nc23)C[C@H]1C (stereo partly shown) [Compound A13]	3700	5900
CC(c1ccc2nccnc2c1)N1C[C@H](C)N(c2cc(=O)n(C)c3cn(C4CCC4)nc23)C[C@H]1C (stereo partly shown) [Compound A14]	12000	52000
CC(c1ccc2nccnc2c1)N1C[C@H](C)N(c2cc(=O)n(C)c3cn(C(=O)C4CC4)nc23)C[C@H]1C (stereo partly shown) [Compound A15]	34000	5900
CC(c1ccc2nccnc2c1)N1C[C@H](C)N(c2cc(=O)n(C)c3cn(C4(C#N)CC4)nc23)C[C@H]1C (stereo partly drawn) [Compound A16, 1-(7-((2S,5R)-2,5-dimethyl-4-(1-(quinoxalin-6-yl)ethyl)piperazin-1-yl)-4-methyl-5-oxo-4,5-dihydro-2H-pyrazolo[4,3-b]pyridin-2-yl)cyclopropane-1-carbonitrile]	4200	9600
CC(c1ccc2nccnc2c1)N1C[C@H](C)N(c2cc(=O)n(C)c3cn(C4CC4)nc23)C[C@H]1C (stereo partly drawn) [Compound A17, 2-cyclopropyl-7-((2S,5R)-2,5-dimethyl-4-(1-(quinoxalin-6-yl)ethyl)piperazin-1-yl)-4-methyl-2,4-dihydro-5H-pyrazolo[4,3-b]pyridin-5-one]	13000	9000
CC(c1ccc2nccnc2c1)N1C[C@H](C)N(c2cc(=O)n(C)c3cn(C(C)C)nc23)C[C@H]1C (stereo partly shown) [Compound A18]	3700	5700
